Earlier results as cited in paper PMC4364341, “NBD delivery improves the disease phenotype of the golden retriever model of Duchenne muscular dystrophy” (Skeletal Muscle, 2014).

Tested on: GRMD dogs
Details: previous GRMD prednisone trial; cited from earlier work
From the text: This functional benefit obtained by NBD in GRMD dogs was consistent with that obtained in the mdx murine model of DMD [13].

For `C[C@]12C=CC(=O)C=C1CC[C@@H]1[C@@H]2C(=O)C[C@@]2(C)[C@H]1CC[C@]2(O)C(=O)CO` [prednisone], the “Extension force in treated GRMD dogs” value is listed as “increased extension force”.
